Results on five compounds are retold here after patent US5591717A, “Branched apogenic peptide for inducing apoptosis” (priority 1994, dated 1997).

Data set [1] concerns HL60 cells. Put plainly: Augmentation by 1,25-dihydroxy vitamin D3 in HL60 cells, microscopy. The class given is cell-based, human. As to conditions: simultaneous exposure. On the procedure: At 1 μM, 1,25-dihydroxy vitamin D3 will drive differentiation of HL60 cells into monocytes; overt differentiation requires 72-96 hours. Accordingly, HL60 cell cultures were simultaneously exposed to a subapoptotic dose of 1 μM CSarma VR5-BAP and 0.5 or 1.0 μM 1, 25-dihydroxy vitamin D3. The cultures were then evaluated by inverted phase microscopy of tissue culture plates and by light microscopic examination of Wright-Giemsa stained cytocentrifuge preparations.

Data set [2] has as its system HL60 cells. Put plainly: Sodium butyrate or retinoic acid with sub-apoptotic CSarma VR5-BAP in HL60 cells. It counts as cell-based, human. As to conditions: 1 μM agent, 2, 3 and 5 days. Here is the method:
At 1 μM sodium butyrate and retinoic acid induce monocytic and granulocytic differentiation in HL60 cells, respectively. Neither the sodium butyrate nor retinoic acid is specifically associated with calcium transport. HL60 cells were simultaneously exposed to such […] dose (1 μM) of CSarma VR5-BAP and to either 1 μM sodium butyrate or 1 μM retinoic acid. Cells were cultured for 5 days and evaluated by inverted phase contrast microscopy and light microscopic examination of Wright-Giemsa-Stained cytrocentrifuge preparation. Samples were taken at 2, 3 and 5 days.

The subject of data set [3] is HL60, K562, 3201 and H9 cells. On the procedure: A commonly used anti-apogenic compound is zinc. HL60, K562, 3201 and H9 cells were exposed to 1, 2, 4, 7.9, 15.7, 31.3, 62.5, 125, 250, 500, and 1000 μM zinc sulfate and 6 μM CSarma VR5-BAP. The cells were cultured for 24 and 8 hours.
Data set [4] has as its system HL60 cell cultures. Put plainly: Heparin reversal of CSarma VR5-BAP effect in HL60 cells, MTT and INDO-1. It counts as cell-based, human. Here is the method: HL60 cell cultures were treated with 6 μM CSarma VR5-BAP and 0.3 U/ml, or 3.0 U/ml heparin. Control cell cultures received either no polypeptide or 0.3 U/ml or 3.0 U/ml heparin. Cell growth was determined at 1 and 2 days as assessed by MTT cell proliferation/viability assay. The mobilization of intracellular calcium was assessed by INDO-1 staining and anchored cell fluorescent microscopy.

Consider `C=C1/C(=C\C=C2/CCC[C@]3(C)[C@@H]([C@H](C)CCCC(C)(C)O)CC[C@@H]23)C[C@@H](O)C[C@@H]1O` [1,25-dihydroxy vitamin D3, 1,25-dihydroxycholecalciferol], for which the “increase of sensitivity of HL60 cells to CSarma VR5-BAP” value in data set [1] was “six-fold”.

Take `CC1=C(/C=C/C(C)=C/C=C/C(C)=C/C(=O)O)C(C)(C)CCC1` [retinoic acid]: the “apoptosis on simultaneous treatment with 1 μM CSarma VR5-BAP” value in data set [2] is “did not cause apoptosis”.

Turning to `CCCC(=O)[O-].[Na+]` [sodium butyrate], in data set [2], the “apoptosis on simultaneous treatment with 1 μM CSarma VR5-BAP” value was “did not cause apoptosis”.

`O=S(=O)([O-])[O-].[Zn+2]` [zinc sulfate]: in data set [3], the “concentration with direct toxicity” value was “greater than 31.3 μM”. Moreover, the “reversal of CSarma VR5-BAP induced apoptosis” value in data set [3] (1 to 1000 μM zinc sulfate with 6 μM CSarma VR5-BAP) is on record as “failed to reverse”.

Consider heparin, for which the “mobilization of intracellular calcium” value in data set [4] (INDO-1 staining) is “prevents mobilization of intracellular calcium”. The “concentration inhibiting the growth suppression of 6 μM CSarma VR5-BAP” value in data set [4] (MTT, 1 and 2 days) was “greater than or equal to 0.3 U/ml”.
